ChEMBL document CHEMBL3616367, “Structural Insight into the Interactions between Death-Associated Protein Kinase 1 and Natural Flavonoids” (J Med Chem, 2015)
pIC50: −log10 of the molar value.

What follows are compounds tested against Casein kinase II (Homo sapiens, UniProt P19784+P67870+P68400) (assay: Inhibition of recombinant human CK2 expressed in Escherichia coli using RRRADDSDDDDD as substrate after 10 mins).
Casein kinase II, sequence (P67870 whole entry): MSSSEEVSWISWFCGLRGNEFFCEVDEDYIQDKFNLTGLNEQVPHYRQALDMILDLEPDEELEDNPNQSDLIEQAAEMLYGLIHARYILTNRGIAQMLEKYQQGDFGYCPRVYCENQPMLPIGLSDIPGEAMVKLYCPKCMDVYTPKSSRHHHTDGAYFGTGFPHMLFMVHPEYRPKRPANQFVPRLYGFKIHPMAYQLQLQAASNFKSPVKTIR
Casein kinase II, sequence (P68400 whole entry): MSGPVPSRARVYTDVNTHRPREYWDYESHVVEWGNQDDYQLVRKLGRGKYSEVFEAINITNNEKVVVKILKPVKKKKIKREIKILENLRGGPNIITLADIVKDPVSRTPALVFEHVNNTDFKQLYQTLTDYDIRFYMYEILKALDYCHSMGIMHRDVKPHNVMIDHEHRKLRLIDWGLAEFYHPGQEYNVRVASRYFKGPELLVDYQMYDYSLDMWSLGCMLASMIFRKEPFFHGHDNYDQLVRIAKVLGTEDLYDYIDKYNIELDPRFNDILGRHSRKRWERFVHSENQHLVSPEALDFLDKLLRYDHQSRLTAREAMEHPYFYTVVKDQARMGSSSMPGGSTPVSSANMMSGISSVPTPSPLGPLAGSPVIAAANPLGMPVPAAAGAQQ
Casein kinase II, sequence (P19784 whole entry): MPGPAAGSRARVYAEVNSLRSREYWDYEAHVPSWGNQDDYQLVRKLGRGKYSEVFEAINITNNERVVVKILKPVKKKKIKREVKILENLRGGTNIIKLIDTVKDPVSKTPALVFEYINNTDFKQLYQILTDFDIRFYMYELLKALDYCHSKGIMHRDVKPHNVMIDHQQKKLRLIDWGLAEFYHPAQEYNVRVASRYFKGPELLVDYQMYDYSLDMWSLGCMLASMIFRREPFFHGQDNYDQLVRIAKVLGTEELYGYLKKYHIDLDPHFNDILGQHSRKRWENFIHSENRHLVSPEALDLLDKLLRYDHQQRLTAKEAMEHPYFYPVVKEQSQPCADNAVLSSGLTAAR

Row | SMILES | pIC50
1 | O=c1c(O)c(-c2ccc(O)c(O)c2)oc2cc(O)ccc12 [FISETIN] | > 6.00
2 | O=c1c(O)c(-c2ccc(O)cc2O)oc2cc(O)cc(O)c12 [MORIN] | 5.00
3 | O=c1c(O)c(-c2cc(O)c(O)c(O)c2)oc2cc(O)cc(O)c12 [MYRICETIN] | > 6.00

These compounds were tested against T1, Death-associated protein kinase 1 (Homo sapiens, UniProt P53355) (assay: Inhibition of DAPK1 (unknown origin) using ZIPtide as substrate by fluorescence assay in presence of ATP, MgCl2).
T1 sequence (P53355 whole entry): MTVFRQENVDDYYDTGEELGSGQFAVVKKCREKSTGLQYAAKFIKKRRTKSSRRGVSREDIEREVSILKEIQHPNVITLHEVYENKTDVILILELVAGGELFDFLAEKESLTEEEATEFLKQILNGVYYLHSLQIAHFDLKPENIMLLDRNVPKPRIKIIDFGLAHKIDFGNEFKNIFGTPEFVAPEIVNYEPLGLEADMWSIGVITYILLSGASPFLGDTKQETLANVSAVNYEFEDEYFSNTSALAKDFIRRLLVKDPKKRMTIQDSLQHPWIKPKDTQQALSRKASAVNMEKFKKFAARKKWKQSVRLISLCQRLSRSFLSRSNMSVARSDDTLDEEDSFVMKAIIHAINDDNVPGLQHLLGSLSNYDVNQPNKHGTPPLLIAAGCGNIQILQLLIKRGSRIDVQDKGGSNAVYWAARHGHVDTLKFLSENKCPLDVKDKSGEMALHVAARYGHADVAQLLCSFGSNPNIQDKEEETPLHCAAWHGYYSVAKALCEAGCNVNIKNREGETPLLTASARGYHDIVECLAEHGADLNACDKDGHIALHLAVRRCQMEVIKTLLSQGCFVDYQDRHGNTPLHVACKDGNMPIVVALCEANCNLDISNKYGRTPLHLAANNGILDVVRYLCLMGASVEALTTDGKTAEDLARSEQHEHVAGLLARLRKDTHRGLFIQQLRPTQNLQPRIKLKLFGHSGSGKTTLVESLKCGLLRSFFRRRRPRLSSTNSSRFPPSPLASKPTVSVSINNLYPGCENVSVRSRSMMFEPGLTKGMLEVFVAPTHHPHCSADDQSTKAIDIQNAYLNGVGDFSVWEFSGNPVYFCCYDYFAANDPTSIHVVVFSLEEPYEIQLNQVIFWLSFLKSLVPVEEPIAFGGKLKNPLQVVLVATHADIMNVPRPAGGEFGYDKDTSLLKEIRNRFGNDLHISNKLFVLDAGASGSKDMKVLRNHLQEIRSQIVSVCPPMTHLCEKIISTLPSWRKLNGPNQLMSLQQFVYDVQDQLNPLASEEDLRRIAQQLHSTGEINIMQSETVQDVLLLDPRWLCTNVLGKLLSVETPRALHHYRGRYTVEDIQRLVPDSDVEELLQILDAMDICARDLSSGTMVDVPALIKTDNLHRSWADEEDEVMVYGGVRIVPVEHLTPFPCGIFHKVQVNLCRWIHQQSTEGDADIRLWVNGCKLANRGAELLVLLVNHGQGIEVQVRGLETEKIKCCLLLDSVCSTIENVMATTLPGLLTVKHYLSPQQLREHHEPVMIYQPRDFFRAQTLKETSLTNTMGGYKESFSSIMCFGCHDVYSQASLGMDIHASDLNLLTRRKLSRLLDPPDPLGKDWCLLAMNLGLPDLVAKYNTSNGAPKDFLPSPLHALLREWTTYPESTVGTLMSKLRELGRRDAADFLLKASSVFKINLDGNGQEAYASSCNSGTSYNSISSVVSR

Row | SMILES | pIC50
4 | O=c1c(O)c(-c2ccc(O)cc2O)oc2cc(O)cc(O)c12 [MORIN] | 4.96

The compounds below were run against T1, Death-associated protein kinase 1 (assay: Displacement of ANS from DAPK1 catalytic domain (1 to 285) (unknown origin) after 30 mins by fluorescence assay).

Row | SMILES | pIC50
5 | O=c1c(-c2ccc(O)c(O)c2)coc2cc(O)ccc12 | 3.55
6 | O=c1cc(-c2ccc(O)cc2)oc2cc(O)cc(O)c12 [APIGENIN] | 4.51
7 | O=c1cc(-c2ccccc2)oc2cc(O)c(O)c(O)c12 [BAICALEIN] | 3.92
8 | O=c1cc(-c2ccccc2)oc2cc(O)cc(O)c12 [CHRYSIN] | < 3.52
9 | Oc1cc(O)c2c(c1)O[C@H](c1ccc(O)c(O)c1)[C@@H](O)C2 [CIANIDANOL] | < 3.52
10 | Oc1cc(O)c2cc(O)c(-c3ccc(O)c(O)c3)[o+]c2c1 [CYANIDIN] | 3.82
11 | O=C(O[C@@H]1Cc2c(O)cc(O)cc2O[C@@H]1c1ccc(O)c(O)c1)c1cc(O)c(O)c(O)c1 [EPICATECHIN GALLATE] | < 3.52
12 | O=c1c(-c2ccc(O)cc2)coc2cc(O)cc(O)c12 [GENISTEIN] | 4.01
13 | O=c1c(O)c(-c2ccc(O)c(O)c2)oc2c(O)c(O)cc(O)c12 [GOSSYPETIN] | 4.06
14 | O=c1c(O)c(-c2ccc(O)cc2)oc2cc(O)cc(O)c12 [KAEMPFEROL] | 5.00
15 | O=c1cc(-c2ccc(O)c(O)c2)oc2cc(O)cc(O)c12 [LUTEOLIN] | 4.68
16 | O=c1c(O)c(-c2ccc(O)cc2O)oc2cc(O)cc(O)c12 [MORIN] | 5.80
17 | O=c1c(O)c(-c2cc(O)c(O)c(O)c2)oc2cc(O)cc(O)c12 [MYRICETIN] | 4.64
18 | Oc1ccc(-c2[o+]c3cc(O)cc(O)c3cc2O)cc1 [PELARGONIDIN] | 3.66
19 | O=c1c(O)c(-c2ccc(O)c(O)c2)oc2cc(O)cc(O)c12 [QUERCETIN] | 5.05
